# Results from ChEMBL document CHEMBL1671755, “Prevalence, mutation patterns, and effects on protease inhibitor susceptibility of the L76V mutation in HIV-1 protease” (2010).
# Key:
# Assay type in all cases: functional
# [1] = system: Human immunodeficiency virus 1; test: Antiviral activity against Human immunodeficiency virus 1 harboring M46I, M46L, I54V, and V82A mutations in viral protease assessed as fold change in drug susceptibility relative to wild type
# [2] = system: Human immunodeficiency virus 1; test: Antiviral activity against Human immunodeficiency virus 1 harboring M46I, M46L, I54V, V82A and L76V mutations in viral protease assessed as fold change in drug susceptibility relative to wild type
# [3] = system: Human immunodeficiency virus 1; test: Antiviral activity against Human immunodeficiency virus 1 harboring protease inhibitor resistance-associated mutations assessed as fold change in drug susceptibility relative to wild type
# [4] = system: Human immunodeficiency virus 1; test: Antiviral activity against Human immunodeficiency virus 1 harboring protease inhibitor resistance-associated mutations and protease L76V mutation in viral protease assessed as fold change in drug susceptibility relative to wild type
# [5] = system: Human immunodeficiency virus 1; test: Antiviral activity against Human immunodeficiency virus 1 harboring M46I mutation in viral protease assessed as fold change in drug susceptibility relative to wild type
# [6] = system: Human immunodeficiency virus 1; test: Antiviral activity against Human immunodeficiency virus 1 harboring M46I and L76V mutations in viral protease assessed as fold change in drug susceptibility relative to wild type
structure (smiles),measurement,setting,value
Cc1cccc(C)c1OCC(=O)N[C@@H](Cc1ccccc1)[C@@H](O)C[C@H](Cc1ccccc1)NC(=O)[C@H](C(C)C)N1CCCNC1=O [LOPINAVIR],fold change (FC),[1],28
same,fold change (FC),[2],163.1
same,fold change (FC),[3],46.1
same,fold change (FC),[4],174.2
same,fold change (FC),[5],1.6
same,fold change (FC),[6],9.9
COC(=O)N[C@H](C(=O)N[C@@H](Cc1ccccc1)[C@@H](O)CN(Cc1ccc(-c2ccccn2)cc1)NC(=O)[C@@H](NC(=O)OC)C(C)(C)C)C(C)(C)C [ATAZANAVIR],fold change (FC),[1],5.7
same,fold change (FC),[2],2.1
same,fold change (FC),[3],75.2
same,fold change (FC),[4],11.3
same,fold change (FC),[5],4.3
same,fold change (FC),[6],0.9
CC(C)CN(C[C@@H](O)[C@H](Cc1ccccc1)NC(=O)O[C@H]1CO[C@H]2OCC[C@H]21)S(=O)(=O)c1ccc(N)cc1 [DARUNAVIR],fold change (FC),[1],1.1
same,fold change (FC),[2],4.2
same,fold change (FC),[3],8.5
same,fold change (FC),[4],37.4
same,fold change (FC),[5],0.9
same,fold change (FC),[6],2.8
CC(C)(C)NC(=O)[C@@H]1C[C@@H]2CCCC[C@@H]2CN1C[C@@H](O)[C@H](Cc1ccccc1)NC(=O)[C@H](CC(N)=O)NC(=O)c1ccc2ccccc2n1 [SAQUINAVIR],fold change (FC),[1],2.8
same,fold change (FC),[2],3.2
same,fold change (FC),[3],197.4
same,fold change (FC),[4],43.5
same,fold change (FC),[5],1.2
same,fold change (FC),[6],0.7
CC(C)(C)NC(=O)[C@@H]1CN(Cc2cccnc2)CCN1C[C@@H](O)C[C@@H](Cc1ccccc1)C(=O)N[C@H]1c2ccccc2C[C@H]1O.O [INDINAVIR],fold change (FC),[1],9.7
same,fold change (FC),[2],37.4
same,fold change (FC),[3],40.1
same,fold change (FC),[4],60.1
same,fold change (FC),[5],3.4
same,fold change (FC),[6],8.6
Cc1c(O)cccc1C(=O)N[C@@H](CSc1ccccc1)[C@H](O)CN1C[C@H]2CCCC[C@H]2C[C@H]1C(=O)NC(C)(C)C [NELFINAVIR],fold change (FC),[1],13.9
same,fold change (FC),[2],14.8
same,fold change (FC),[3],78.3
same,fold change (FC),[4],36.1
same,fold change (FC),[5],7.9
same,fold change (FC),[6],2.5
CCC[C@@]1(CCc2ccccc2)CC(O)=C([C@H](CC)c2cccc(NS(=O)(=O)c3ccc(C(F)(F)F)cn3)c2)C(=O)O1 [TIPRANAVIR],fold change (FC),[1],1.7
same,fold change (FC),[2],1.2
same,fold change (FC),[3],6.7
same,fold change (FC),[4],3.6
same,fold change (FC),[5],1.2
same,fold change (FC),[6],0.8
CC(C)c1nc(CN(C)C(=O)N[C@H](C(=O)N[C@@H](Cc2ccccc2)C[C@H](O)[C@H](Cc2ccccc2)NC(=O)OCc2cncs2)C(C)C)cs1 [RITONAVIR],fold change (FC),[1],37.6
same,fold change (FC),[2],63.6
same,fold change (FC),[3],129.7
same,fold change (FC),[4],113.2
same,fold change (FC),[5],2.2
same,fold change (FC),[6],2.7
CC(C)CN(C[C@@H](O)[C@H](Cc1ccccc1)NC(=O)O[C@H]1CCOC1)S(=O)(=O)c1ccc(N)cc1 [AMPRENAVIR],fold change (FC),[1],3.7
same,fold change (FC),[2],19.3
same,fold change (FC),[3],21.1
same,fold change (FC),[4],70.9
same,fold change (FC),[5],1.5
same,fold change (FC),[6],6.7
